{"source": "patent US6864061B2", "about": "“Method for screening compounds for anti-inflammatory activity” (GeneTrol Biotherapeutics, Inc., priority 2000, dated 2005)", "format_in_all_cases": "cell-based, human", "key": {"[1]": {"system": "PKR-overexpressing Namalwa cells (Nam-PKR), IFN-alpha production", "assay": "Dose-response inhibition of IFN-alpha production in PMA and poly r(I):poly r(C) treated PKR-overexpressing Namalwa cells", "conditions": "FIG. 3"}, "[2]": {"system": "PKR-overexpressing Namalwa cells (Nam-PKR), TNF-alpha production", "assay": "TNF-alpha production in PMA/poly I:C-induced PKR-overexpressing Namalwa cells (ELISA)", "conditions": "1 mM 2-AP, 20 mM PMA priming 20 hr, 200 μg/ml poly I:C induction 3 days, FIG. 2A", "experimental": "(§1) PKR-transfected Namalwa cells (Nam-PKR) were cultured at 2.5×10^5 cells/ml in DMEM/F12 medium supplemented with 10% FBS. The cells were treated with 20 mM PMA (priming) for 20 hr followed by treatment with 200 μg/ml poly I:C (induction) for 3 days in the presence of 1 mM 2-aminopurine (2-AP) or in the absence of 2-AP. One set of cells was left untreated (non-induced controls). Following treatment, the culture supernatants were collected and analyzed for TNF-alpha or for TNF-beta by ELISA according to the procedure provided by the supplier of the ELISA kits (R&D Systems). The data for cytokine induction is shown in FIGS. 2A and 2B, which illustrates that the PKR-overexpressing Namalwa cell line produces a high level of proinflammatory cytokine (TNF-alpha) under induction conditions (FIG. 2A) and that the induced levels of TNF-alpha are about 4-fold lower in the presence of the PKR inhibitor, 2-AP."}, "[3]": {"system": "PKR-overexpressing Namalwa cells (Nam-PKR), TNF-beta production", "assay": "TNF-beta production in PMA/poly I:C-induced PKR-overexpressing Namalwa cells (ELISA)", "conditions": "1 mM 2-AP; 20 mM PMA priming 20 hr, 200 μg/ml poly I:C induction 3 days; FIG. 2B", "experimental": "as §1"}}, "data": [{"smiles": "Nc1ncc2[nH]cnc2n1", "note": "[2-AP, 2-aminopurine]", "values": [{"measurement": "inhibition of IFN-alpha production at 1 mM (in words)", "setting": "[1]; 1 mM 2-AP, both experiments", "value": "relatively ineffective"}, {"measurement": "inhibition of IFN-alpha production at 8 mM (in words)", "setting": "[1]; 8 mM 2-AP", "value": "completely inhibited"}, {"measurement": "inhibition of IFN-alpha at 5 mM relative to 1 mM", "setting": "[1]; first experiment", "value": 360, "unit": "fold"}, {"measurement": "inhibition of INF-alpha production between 1 mM and 5 mM", "setting": "[1]; second experiment", "value": 5, "unit": "fold"}, {"measurement": "suppression of TNF-alpha production level, with vs without the PKR inhibitor", "setting": "[2]", "value": "about 4 fold"}, {"measurement": "suppression of TNF-alpha production level, with vs without the PKR inhibitor", "setting": "[2]; listed as 2 AP", "value": 4, "unit": "fold"}, {"measurement": "suppression of TNF-beta production level, with vs without the PKR inhibitor", "setting": "[3]", "value": 5, "unit": "fold"}]}]}
